Laboratory results taken from PMC4826192 (Oncotarget, 2015).

Test system: MPNST (malignant peripheral nerve sheath tumor) cells
Assay: Cell viability assay (Dojindo CCK-8)
Conditions: 72 hours

Cc1ccc(NC(=O)c2ccc(CN3CCN(C)CC3)cc2)cc1Nc1nccc(-c2cccnc2)n1 [imatinib]
anti-proliferative effect, comparison of TKIs (500 nmol/L): anti-proliferative effect similar to MGCD516

Cc1ccc(Nc2nccc(N(C)c3ccc4c(C)n(C)nc4c3)n2)cc1S(N)(=O)=O [pazopanib]
inhibition of MPNST cell proliferation, pazopanib versus MGCD516: similar
